Converted amounts (≈) assume the structure as drawn. Like-named read-outs stand apart in the source and are kept apart here.
Key:
[1] = system: E. coli K12; test: In vitro antibacterial activity (growth inhibition, OD600), E. coli wild-type; assay type: cell-based; conditions: Escherichia coli, K12, 50 μM compound; Table 1 and main text; read-out: EcK12 inh. at 50 μM
[2] = system: Streptococcus pneumoniae (DSM20566); test: In vitro antibacterial activity (MIC), S. pneumoniae; assay type: cell-based; conditions: read-out: Sp MIC95
[3] = system: Plasmodium falciparum NF54; test: P. falciparum in vitro drug sensitivity assay on asexual blood stage parasites ([3H]-hypoxanthine incorporation); assay type: cell-based; conditions: read-out: PfNF54 IC50
[4] = Solubility in 7H9 medium; assay type: physicochemical; conditions: M. tuberculosis growth medium (7H9)
[5] = system: Acinetobacter baumannii; test: In vitro antibacterial activity (growth inhibition, OD600), A. baumannii; assay type: cell-based; conditions: for MIC: read-out: Ab MIC95
[6] = system: Staphylococcus aureus ssp. Aureus; test: In vitro antibacterial activity (MIC), S. aureus; assay type: cell-based; conditions: read-out: Sa MIC95
[7] = system: Escherichia coli ∆tolC; test: microbe, parasite or virus in culture; assay type: cell-based; conditions: for MIC / inhibition at 50 µM: Escherichia coli; for inhibition at 50 µM: read-out: Ec∆tolC inh. at 50 µM (%)
[8] = system: Pseudomonas aeruginosa PA14; test: In vitro antibacterial activity (growth inhibition, OD600), P. aeruginosa; assay type: cell-based; conditions: PA14, 50 μM compound, Table 1 and main text, read-out: PA14 inh. at 50 μM
[9] = in vitro; conditions: human, HepG2 CC50, 48 h, MTT
[10] = system: Mycobacterium tuberculosis (Mtb) strain H37Rv; test: microbe, parasite or virus in culture; assay type: cell-based; conditions: 168 h, 7 days, footnote b: not active at maximum solubility, read-out: MtbH37Rv MIC90
[11] = Streptococcus pneumoniae, DSM20566, Table 1 and main text
[12] = Streptococcus pneumoniae, DSM20566, Table S2, with standard deviation
[13] = Plasmodium falciparum, NF54, Table 1 and main text
[14] = 50 μM compound, Table 1 and main text, read-out: Ab inh. at 50 μM
[15] = Staphylococcus aureus, Table 1 and main text
[16] = Staphylococcus aureus, Table S2, with standard deviation
[17] = 50 µM, Table S1, with standard deviation, read-out: Ab inh. at 50 µM (%)

SMILES	inhibition at 50 µM [1]	MIC [2, 11]	MIC [2, 12]	IC50 [3, 13]	7h9 media Sol. [4]	inhibition at 50 µM [5, 14]	MIC [6, 15]	MIC [6, 16]	MIC ([7]; read-out: EcΔtolC MIC95)	inhibition at 50 µM [7]	inhibition at 50 µM [8]	CC50 [9]	MIC90 [10]	MIC ([7]; read-out: Ec∆tolC MIC95 (µM))	also measured
O=C(Nc1cccc(C(F)(F)F)c1)c1cc(-c2cc(Cl)ccc2O)[nH]n1 [Compound 1a]	< 10%	> 50 µM	> 50 µM	210 nM	< 8 µM	< 10%	> 50 µM	> 50 µM	> 50 µM	< 10%	< 10%	> 50000 nM	–	–	MIC ([2]; Table 1 and main text): >50 µM; MIC ([6]; Table 1 and main text): >50 µM; EcΔtolC MIC95 ([7]; Table 1 and main text): >50 µM
O=C(Nc1cccc(F)c1)c1cc(-c2cc(Cl)ccc2O)[nH]n1 [Compound 1b]	–	> 50 µM	> 50 µM	700 nM	< 8 µM	–	> 50 µM	> 50 µM	> 50 µM	–	–	–	–	–	–
O=C(Nc1cccc([N+](=O)[O-])c1)c1cc(-c2cc(Cl)ccc2O)[nH]n1 [Compound 1c]	–	> 50 µM	> 50 µM	510 nM	32 µM	–	> 50 µM	> 50 µM	> 50 µM	–	–	–	> 32 µM	–	–
O=C(Nc1cccc(CN2CCOCC2)c1)c1cc(-c2cc(Cl)ccc2O)[nH]n1 [Compound 2]	–	> 50 µM	> 50 µM	1100 nM	16 µM	–	> 50 µM	> 50 µM	> 50 µM	24 ± 12%	–	~50000 nM	> 16 µM	–	–
O=C(Nc1cccc(CN2CCNCC2)c1)c1cc(-c2cc(Cl)ccc2O)[nH]n1 [Compound 3A]	28%	40 µM (≈ 16.5 µg/mL)	40 ± 7 µM (≈ 16.5 µg/mL)	620 nM	64 µM	21%	> 50 µM	> 50 µM	45 µM (≈ 18.5 µg/mL)	–	50%	12000 nM	> 64 µM	45 ± 1 µM (≈ 18.5 µg/mL)	–
O=C(Nc1cccc(N2CCNCC2)c1)c1cc(-c2cc(Cl)ccc2O)[nH]n1 [Compound 5A]	83%	26 µM (≈ 10.3 µg/mL)	26 ± 1 µM (≈ 10.3 µg/mL)	130 nM	64 µM	34%	37 µM (≈ 14.7 µg/mL)	37 ± 10 µM (≈ 14.7 µg/mL)	21 µM (≈ 8.36 µg/mL)	–	60%	9000 nM	64 µM (≈ 25.5 µg/mL)	21 ± 2 µM (≈ 8.36 µg/mL)	inhibition at 50 µM [5, 17]: 34.3 ± 0.4%
O=C(Nc1ccc(N2CCNCC2)cc1)c1cc(-c2cc(Cl)ccc2O)[nH]n1 [Compound 6A]	49%	45 µM (≈ 17.9 µg/mL)	45 µM (≈ 17.9 µg/mL)	140 nM	16 µM	37%	> 50 µM	> 50 µM	22.5 µM (≈ 8.95 µg/mL)	–	63%	11800 nM	> 16 µM	22.5 µM (≈ 8.95 µg/mL)	–
NCc1ccc(NC(=O)c2cc(-c3cc(Cl)ccc3O)[nH]n2)cc1 [Compound 8A]	–	> 50 µM	> 50 µM	> 2000 nM	16 µM	–	> 50 µM	> 50 µM	> 50 µM	44 ± 16%	–	30000 nM	> 16 µM	–	IC50 ([3]; Table 1 and main text): 1800 nM
CC(C)(C)OC(=O)NCc1ccc(NC(=O)c2cc(-c3cc(Cl)ccc3O)[nH]n2)cc1 [Compound 8B]	–	> 50 µM	> 50 µM	1700 nM	< 8 µM	–	> 50 µM	> 50 µM	> 50 µM	< 10%	–	> 50000 nM	–	–	–
O=C(Nc1cc(N2CCNCC2)cc(C(F)(F)F)c1)c1cc(-c2cc(Cl)ccc2O)[nH]n1 [Compound 11A]	72%	5 µM (≈ 2.33 µg/mL)	5 ± 1 µM (≈ 2.33 µg/mL)	≤ 60 nM	–	–	6 µM (≈ 2.8 µg/mL)	6 ± 2 µM (≈ 2.8 µg/mL)	7 µM (≈ 3.26 µg/mL)	–	< 10%	9000 nM	32 µM (≈ 14.9 µg/mL)	7 ± 2 µM (≈ 3.26 µg/mL)	IC50 ([3]; Table 1 and main text): 50 nM; MIC ([5]; Table S1, printed inside the inhibition column, with standard deviation, unit from Table 1 footnote): 22 ± 3 µM (≈ 10.2 µg/mL); MIC ([5]; printed inside the Ab inhibition column, Table 1 and main text): 22 µM (≈ 10.2 µg/mL)
CC(C)(C)OC(=O)N1CCN(c2cc(NC(=O)c3cc(-c4cc(Cl)ccc4O)[nH]n3)cc(C(F)(F)F)c2)CC1 [Compound 11B]	–	> 50 µM	> 50 µM	130 nM	< 8 µM	–	> 50 µM	> 50 µM	> 50 µM	18 ± 4%	–	4000 nM	–	–	inhibition at 50 µM [5, 17]: < 10%
O=C(Nc1cc(N2CCN(C3=NCCN3)CC2)cc(C(F)(F)F)c1)c1cc(-c2cc(Cl)ccc2O)[nH]n1 [Compound 11C, 5-(5-Chloro-2-hydroxyphenyl)-N-(3-(4-(4,5-dihydro-1H-imidazol-2-yl)piperazin-1-yl)-5-(trifluoromethyl)phenyl)-1H-pyrazole-3-carboxamide]	63%	7 µM (≈ 3.74 µg/mL)	7 ± 2 µM (≈ 3.74 µg/mL)	590 nM	–	53%	8 µM (≈ 4.27 µg/mL)	8 ± 2 µM (≈ 4.27 µg/mL)	7 µM (≈ 3.74 µg/mL)	–	< 10%	> 50000 nM	8 µM (≈ 4.27 µg/mL)	7 ± 2 µM (≈ 3.74 µg/mL)	–
O=C(Nc1ccc(N2CCNCC2)c(C(F)(F)F)c1)c1cc(-c2cc(Cl)ccc2O)[nH]n1 [Compound 12A, 5-(5-Chloro-2-hydroxyphenyl)-N-(4-(piperazin-1-yl)-3-(trifluoromethyl)phenyl)-1H-pyrazole-3-carboxamide]	12%	8 µM (≈ 3.73 µg/mL)	8 ± 2 µM (≈ 3.73 µg/mL)	≤ 60 nM	–	29%	14 µM (≈ 6.52 µg/mL)	14 ± 2 µM (≈ 6.52 µg/mL)	18.9 µM (≈ 8.8 µg/mL)	–	< 10%	6000 nM	16 µM (≈ 7.45 µg/mL)	18.9 ± 0.5 µM (≈ 8.8 µg/mL)	IC50 ([3]; Table 1 and main text): 60 nM
CC(C)(C)OC(=O)N1CCN(c2ccc(NC(=O)c3cc(-c4cc(Cl)ccc4O)[nH]n3)cc2C(F)(F)F)CC1 [Compound 12B, tert-Butyl 4-(4-(5-(5-chloro-2-hydroxyphenyl)-1H-pyrazole-3-carboxamido)-2-(trifluoromethyl)phenyl)piperazine-1-carboxylate]	–	> 50 µM	> 50 µM	560 nM	< 8 µM	–	> 50 µM	> 50 µM	> 50 µM	< 10%	–	> 50000 nM	–	–	inhibition at 50 µM [5, 17]: < 10%
